Assay results as given in publication PMC9551036, “A selective and orally bioavailable VHL-recruiting PROTAC achieves SMARCA2 degradation in vivo” (Nature Communications, 2022).
Where “and” joins values, the source holds several entries; their conditions need not be identical. Equal entries are not always repeated. Where two headings read alike, the source gives them in different places.

Tests used:
Microsomal stability = assay type: in vitro ADME; conditions: for Mic. Stab. Human / Mic. Stab. Human QH: human liver microsomes; for Mic. Stab. Mouse / Mic. Stab. Mouse QH: mouse liver microsomes; for Mic. Stab. Rat / Mic. Stab. Rat QH: rat liver microsomes
Description: […] Reactions were terminated by addition of acetonitrile and precipitates separated by centrifugation. Compound concentrations in supernatants were measured by HPLC-MS/MS and clearance was calculated from compound half-lives using the well-stirred liver model.

VCB complex = molecular target: T1, VCB complex (Homo sapiens, UniProt P40337); assay: SPR binary binding to immobilised VCB complex
T1 construct: His6 (TEV site) (N, cleaved yes); made in house
T1 sequence (P40337 54-213): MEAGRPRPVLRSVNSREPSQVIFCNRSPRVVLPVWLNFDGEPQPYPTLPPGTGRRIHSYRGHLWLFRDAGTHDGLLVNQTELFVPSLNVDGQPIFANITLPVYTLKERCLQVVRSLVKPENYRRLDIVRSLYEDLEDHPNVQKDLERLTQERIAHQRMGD
T1 sequence (Q15369 17-112 partner limits assumed): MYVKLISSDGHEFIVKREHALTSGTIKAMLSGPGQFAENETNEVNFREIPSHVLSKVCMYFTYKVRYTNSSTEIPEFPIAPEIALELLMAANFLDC
T1 sequence (Q15370 1-104 partner limits assumed): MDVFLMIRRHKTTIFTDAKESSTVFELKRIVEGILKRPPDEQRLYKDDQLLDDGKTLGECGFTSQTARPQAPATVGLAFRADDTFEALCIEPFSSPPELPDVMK
Description: (§1) SMARCA4^BD was provided by the Structural Genomics Consortium (SGC), Toronto[32] and SMARCA2^BD and PRM1^BD5 were synthesised by GeneArt then subcloned into pDEST15 vectors (Invitrogen). The VCB complex was expressed and purified as described previously, with the modification that 0.3 mM IPTG was used for induction of expression. […] Both were stored in 20 mM 4-(2-hydroxyethyl)−1-piperazineethanesulfonic acid (HEPES), 150 mM sodium chloride and 1 mM tris(2-carboxyethyl)phosphine (TCEP) pH 7.5. SMARCA2^BD, SMARCA4^BD and PBRM1^BD5 were expressed in Escherichia coli BL21(DE3) as N-terminal GST fusion proteins with a TEV protease cleavage site. Expression and purification of these proteins has been described previously[32],[33]. Starter cultures were grown overnight at 37 °C in 10 mL of Luria-Bertani (LB) medium with ampicillin (100 μg/mL). The starter cultures were diluted (1:100) in Terrific Broth (TB) medium with ampicillin (100 μg/mL) and grown in a shaking incubator at 37 °C to an optical density (OD600) ~1 before the temperature was lowered for induction (to 23 °C for SMARCA2^BD or 18 °C for SMARCA4^BD and PRRM1^BD5). […] Cells were harvested by centrifugation and stored at −80 °C prior to purification. […] The Lysis buffers were as follows: for SMARCA2^BD: 50 mM HEPES, 500 mM sodium chloride, 5% glycerol, 5 mM dithiothreitol (DTT); for SMARCA4^BD: 25 mM HEPES, 0.3 M sodium chloride, 5% glycerol, 10 mM DTT, pH 7.5; for PBRM1^BD5: 25 mM HEPES, 300 mM sodium chloride, 5% glycerol, 10 mM DTT, pH 7.8; in each case supplemented with complete protease inhibitors (Roche). Affinity purification was performed using Glutathione Sepharose 4B (GE Healthcare) in batch mode or on-column. […] For SMARCA2^BD, prior to TEV protease cleavage the eluted GST-tagged BD was first dialysed into desalting buffer (20 mM HEPES, 250 mM sodium chloride, pH 7.0 + 0.5% glycerol). Where TEV cleavage was performed in solution, a second affinity (GST-trap) column purification step was carried out to remove the GST-tag and uncleaved GST-tagged protein. Proteins were further purified by SEC (HiLoad Superdex-75, 16/600) (GE Healthcare) and stored in Storage buffer (for SMARCA2^BD: 20 mM HEPES, 150 mM sodium chloride, pH 7.5; for SMARCA4^BD: 10 mM HEPES, 0.5 M NaCl, 5% glycerol, pH 7.5; for PBRM1^BD5: 20 mM HEPES, 300 mM NaCl, 5 mM DTT, pH 7.8). For AlphaScreen assays, eluted GST-tagged BDs were purified directly by SEC in the respective storage buffers without TEV cleavage. All chromatography purification steps were performed either at room temperature or 4 °C using an ÄKTA FPLC purification system (GE Healthcare) or a plastic Econo-Pac column (Bio-Rad).
(§2) SPR data were acquired on Biacore 8K or T200 instruments (Cytiva). Target proteins were immobilised at 25 °C on CM5 chips by amine coupling (EDC/NHS, Cytiva) in HBS-P+ running buffer (pH 7.4), containing 2 mM TCEP. […] The reference surface was subsequently deactivated using 1 M ethanolamine. […] Biotinylated VCB was prepared as previously described[27]: in brief, the complex was mixed 1:1 with EZ-Link NHS–PEG4–biotin (Thermo Scientific) and incubated at room temperature for 1 h. Unreacted NHS-biotin was removed using a PD-10 desalting column (Cytiva) into 20 mM HEPES, pH 7.5, 150 mM sodium chloride and 1 mM DTT. The reference surface was generated by deactivating the EDC/NHS-treated surface with 1 M ethanolamine. All interaction experiments were done at 6 °C in running buffer (20 mM TRIS, pH 8.3, 150 mM potassium chloride, 2 mM magnesium chloride, 2 mM TCEP, 0.005% TWEEN 20, 1% dimethyl sulfoxide). For ternary complex measurements, a sensor chip surface with VCB immobilised was used (preparation as described above). Experiments were run in dual-inject mode with 10 µM SMARCA present during the injection and dissociation phase. Sensorgrams from reference surfaces and blank injections were subtracted from the raw data prior to data analysis using Biacore Insight software.

[1] = test system: VCB: PROTAC: SMARCA2^BD ternary complex; assay: TR-FRET ternary complex affinity and cooperativity, SMARCA2; assay type: binding, human; conditions: ratio TR-FRET EC50 / TR-FRET EC50 +VCB measured in the same run, SMARCA2BD
SMARCA2^BD = molecular target: T2, SMARCA2^BD (Homo sapiens, UniProt P51531); assay: SPR binding to immobilised SMARCA2 bromodomain; conditions: SPR, read-out: SMARCA2 KD
T2 construct: P51531-2, residues 1373-1493 with additional N-terminal SM residues; GST (TEV site) (N, cleaved yes); made in house; host or cells: Escherichia coli BL21(DE3)
T2 sequence (P51531 1373-1493 isoform P51531-2): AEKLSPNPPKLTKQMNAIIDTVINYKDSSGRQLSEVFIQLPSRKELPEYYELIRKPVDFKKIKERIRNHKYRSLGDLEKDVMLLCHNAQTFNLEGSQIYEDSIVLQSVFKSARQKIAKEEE
Description: as §1, §2

[2] = binary binding to VCB, mean ± SD

SMILES: Cc1ncsc1-c1ccc(CNC(=O)[C@@H]2C[C@@H](O)CN2C(=O)[C@@H](NC(=O)C2(F)CC2)C(C)(C)C)c(OCCOCCOCCN2CCC(c3ccc4c(c3)n(C3CCCC3)c3nc(=O)c5c(Br)cccc5n43)CC2)c1 [compound 21]
- Mic. Stab. Human (Microsomal stability): 87 ± 10 % QH
- Mic. Stab. Human QH (Microsomal stability): 92.470% and 92.660% and 75.300%
- Mic. Stab. Mouse (Microsomal stability): 56 ± 10 % QH
- Mic. Stab. Mouse QH (Microsomal stability): 62.650% and 61.360% and 44.780%
- Mic. Stab. Rat (Microsomal stability): 45 ± 13 % QH
- Mic. Stab. Rat QH (Microsomal stability): 57.680% and 45.850% and 32.500%
- Kd (VCB complex; [2]): 21 ± 5 nM
- Kd (VCB complex; binary, individual replicates): 19.9 nM and 27 nM and 21.6 nM and 15.2 nM
- cooperativity α (SMARCA2BD) [1]: 1.9 ± 0.1
- Kd (SMARCA2^BD; SMARCA2BD, mean ± SD): 680 ± 121 nM
- Kd (SMARCA2^BD; individual replicates): 650 nM and 814 nM and 577 nM

SMILES: Cc1ncsc1-c1ccc(CNC(=O)[C@@H]2C[C@@H](O)CN2C(=O)[C@@H](NC(=O)C2(F)CC2)C(C)(C)C)c(OCCOCCOCCOCCN2CCC(c3ccc4c(c3)n(C3CCCC3)c3nc(=O)c5c(Br)cccc5n43)CC2)c1 [compound 22]
- Mic. Stab. Human (Microsomal stability): 83 ± 13 % QH
- Mic. Stab. Human QH (Microsomal stability): 92.060% and 73.150%
- Mic. Stab. Mouse (Microsomal stability): 58 % QH
- Mic. Stab. Mouse QH (Microsomal stability): 57.720%
- Mic. Stab. Rat (Microsomal stability): 40 % QH
- Mic. Stab. Rat QH (Microsomal stability): 40.440%
- Kd (VCB complex; [2]): 39 ± 16 nM
- Kd (VCB complex; binary, individual replicates): 31.8 nM and 62.9 nM and 29.3 nM and 33 nM
- cooperativity α (SMARCA2BD) [1]: 2.8 ±0.8
- Kd (SMARCA2^BD; SMARCA2BD, mean ± SD): 1100 ± 433 nM
- Kd (SMARCA2^BD; individual replicates): 1570 nM and 715 nM and 1020 nM

SMILES: Cc1ncsc1-c1ccc(CNC(=O)[C@@H]2C[C@@H](O)CN2C(=O)[C@@H](NC(=O)C2(F)CC2)C(C)(C)C)c(OCCCCN2CCC(c3ccc4c(c3)n(C3CCCC3)c3nc(=O)c5c(Br)cccc5n43)CC2)c1 [compound 23]
- Mic. Stab. Human (Microsomal stability): 78 % QH
- Mic. Stab. Human QH (Microsomal stability): 78.440%
- Mic. Stab. Mouse (Microsomal stability): 42 % QH
- Mic. Stab. Mouse QH (Microsomal stability): 42.090%
- Mic. Stab. Rat (Microsomal stability): <23 % QH
- Mic. Stab. Rat QH (Microsomal stability): <23.080%
- Kd (VCB complex; [2]): 16 ± 8 nM
- Kd (VCB complex; binary, individual replicates): 11.5 nM and 28.1 nM and 12.3 nM and 10.9 nM
- cooperativity α (SMARCA2BD) [1]: 0.7 ± 0.3
- Kd (SMARCA2^BD; SMARCA2BD, mean ± SD): 94 ± 11 nM
- Kd (SMARCA2^BD; individual replicates): 102 nM and 81.3 nM and 98.3 nM

SMILES: Cc1ncsc1-c1ccc([C@H](CCCCN2CCC(c3ccc4c(c3)n(C3CCCC3)c3nc(=O)c5c(Br)cccc5n43)CC2)NC(=O)[C@@H]2C[C@@H](O)CN2C(=O)[C@@H](NC(=O)C2(F)CC2)C(C)(C)C)cc1 [compound 25]
- Mic. Stab. Human (Microsomal stability): 25 % QH
- Mic. Stab. Human QH (Microsomal stability): 24.800%
- Mic. Stab. Mouse (Microsomal stability): <24 % QH
- Mic. Stab. Mouse QH (Microsomal stability): <24.200%
- Mic. Stab. Rat (Microsomal stability): <23 % QH
- Mic. Stab. Rat QH (Microsomal stability): <23.100%
- Kd (VCB complex; [2]): 6 ± 1 nM
- Kd (VCB complex; binary, individual replicates): 6.94 nM and 6.43 nM and 5.3 nM
- cooperativity α (SMARCA2BD) [1]: 2.2 ± 0.6
- Kd (SMARCA2^BD; SMARCA2BD, mean ± SD): 93 ± 3 nM
- Kd (SMARCA2^BD; individual replicates): 95.4 nM and 90.4 nM and 94 nM

SMILES: Cc1ncsc1-c1ccc([C@H](COCCN2CCC(c3ccc4c(c3)n(C3CCCC3)c3nc(=O)c5c(Br)cccc5n43)CC2)NC(=O)[C@@H]2C[C@@H](O)CN2C(=O)[C@@H](NC(=O)C2(N(C)C)CC2)C(C)(C)C)cc1 [compound 26]
- Mic. Stab. Human (Microsomal stability): 86 ± 0.3 % QH
- Mic. Stab. Human QH (Microsomal stability): 86.500% and 86.000% and 86.480%
- Mic. Stab. Mouse (Microsomal stability): >88 % QH
- Mic. Stab. Mouse QH (Microsomal stability): > 88.400% and 90.900%
- Mic. Stab. Rat (Microsomal stability): 58 ± 3 % QH
- Mic. Stab. Rat QH (Microsomal stability): 60.400% and 54.700% and 57.700%
- Kd (VCB complex; [2]): 76 ± 46 nM
- Kd (VCB complex; binary, individual replicates): 55.5 nM and 144 nM and 50.1 nM and 53.4 nM
- cooperativity α (SMARCA2BD) [1]: 5.8 ± 1.9
- Kd (SMARCA2^BD; SMARCA2BD, mean ± SD): 118 ± 5 nM
- Kd (SMARCA2^BD; individual replicates): 119 nM and 123 nM and 113 nM

SMILES: Cc1ncsc1-c1ccc([C@H](COCCCN2CCC(c3ccc4c(c3)n(C3CCCC3)c3nc(=O)c5c(Br)cccc5n43)CC2)NC(=O)[C@@H]2C[C@@H](O)CN2C(=O)[C@@H](NC(=O)C2(F)CC2)C(C)(C)C)cc1 [compound 27]
- Mic. Stab. Human (Microsomal stability): 43 ± 5 % QH
- Mic. Stab. Human QH (Microsomal stability): 46.200% and 38.900%
- Mic. Stab. Mouse (Microsomal stability): <25 % QH
- Mic. Stab. Mouse QH (Microsomal stability): 24.700% and < 24.200%
- Mic. Stab. Rat (Microsomal stability): <23 % QH
- Mic. Stab. Rat QH (Microsomal stability): <23.100 <23.100%
- Kd (VCB complex; [2]): 12 ± 9 nM
- Kd (VCB complex; binary, individual replicates): 8.51 nM and 25.4 nM and 6.56 nM and 9 nM
- cooperativity α (SMARCA2BD) [1]: 3.3 ± 0.8
- Kd (SMARCA2^BD; SMARCA2BD, mean ± SD): 217 ± 30 nM
- Kd (SMARCA2^BD; individual replicates): 244 nM and 185 nM and 221 nM
